Experimental findings from PubChem BioAssay (NCI) are described below.

Each structure is given as a SMILES string.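 The compound was tested at five concentrations on cells cultured in 96-well plates, with a 48-hour exposure period. Abbreviation: GI50, concentration required for 50% inhibition of growth. Definition used: TGI = concentration required for complete inhibition of growth.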

Some test systems named below: CCRF-CEM leukemia; UO-31 renal; HCT-116 colon; COLO 205 colon; SF-268 CNS; SW-620 colon; HOP-92 NSCLC; NCI/ADR-RES ovarian; UACC-257 melanoma; OVCAR-8 ovarian; MDA-N; DLD-1 colon; SNB-78 CNS; DMS 273 small cell lung; SN12C renal; HOP-18 NSCLC.
Common to all, as to test: NCI-60 cell line screen, 48 h

Take `O=C(CC(Cl)=C(Cl)Cl)c1ccccc1`: the TGI in the assay with CCRF-CEM leukemia is 30.4 µM; in the assay with UO-31 renal, greater than 100 µM; in the assay with HCT-116 colon, 45.2 µM; in the assay with COLO 205 colon it was 78.9 µM; with SF-268 CNS, greater than 100 µM; with SW-620 colon, greater than 100 µM. Moreover, the TGI with HOP-92 NSCLC was greater than 100 µM; in the assay with NCI/ADR-RES ovarian it was greater than 100 µM; in the assay with UACC-257 melanoma, 70 µM; in the assay with OVCAR-8 ovarian it was greater than 100 µM.

`C[C@@H]1CC[C@@]2(OC1)O[C@H]1C[C@H]3[C@@H]4CC[C@H]5C[C@@H](OC6OC(CO)C(OC7OC(CO)C(O)C(OC8OCC(O)C(O)C8O)C7OC7OC(CO)C(O)C(O)C7O)C(O)C6O)[C@H](O)C[C@]5(C)[C@H]4CC[C@]3(C)[C@H]1[C@@H]2C` (stereo partly specified): the TGI is 1.53 µM in the assay on CCRF-CEM leukemia; 17.8 µM with UO-31 renal; 17.8 µM in the assay on HCT-116 colon; 22 µM in the assay with COLO 205 colon; 23.7 µM in the assay on SF-268 CNS; 21 µM with SW-620 colon. The TGI in the assay on HOP-92 NSCLC was found to be 66.5 µM; in the assay with NCI/ADR-RES ovarian, 12.6 µM; in the assay with UACC-257 melanoma it was 39.9 µM; with MDA-N, 28.3 µM; in the assay with OVCAR-8 ovarian, 9.64 µM.

Turning to `O=C(O)C1CCCCN1c1ccccc1[N+](=O)[O-]` (stereo unspecified), the TGI with CCRF-CEM leukemia, in the assay on UO-31 renal, in the assay on HCT-116 colon, in the assay on DLD-1 colon, in the assay with SNB-78 CNS and in the assay on DMS 273 small cell lung was greater than 100 µM throughout. Also, the TGI with SF-268 CNS, with SN12C renal, with SW-620 colon, in the assay on HOP-18 NSCLC, in the assay with HOP-92 NSCLC and with UACC-257 melanoma was greater than 100 µM each time. In the assay with OVCAR-8 ovarian, this compound displayed a TGI greater than 100 µM.

Take `O=c1oc2cc(O)ccc2c(O)c1Cc1c(O)c2ccc(O)cc2oc1=O`: the TGI with CCRF-CEM leukemia, with UO-31 renal, with HCT-116 colon, in the assay on COLO 205 colon, in the assay on SF-268 CNS and in the assay on SN12C renal was greater than 100 µM in each case. The TGI with SW-620 colon, in the assay on HOP-92 NSCLC, in the assay with NCI/ADR-RES ovarian, in the assay with UACC-257 melanoma, in the assay with MDA-N and in the assay with OVCAR-8 ovarian was greater than 100 µM throughout.

For the compound `CN(Cc1cnc2c(N)nc(N)nc2n1)c1ccc(Cl)cc1`, the TGI in the assay on CCRF-CEM leukemia, with UO-31 renal, in the assay on COLO 205 colon, in the assay with SF-268 CNS, with SN12C renal and in the assay on SW-620 colon was greater than 100 µM each time. Besides, the TGI with NCI/ADR-RES ovarian, in the assay with UACC-257 melanoma, in the assay on MDA-N and in the assay with OVCAR-8 ovarian was greater than 100 µM in each case.

In the case of `BrCC[N+]12CC[N+](CCBr)(CC1)C2`, the TGI in the assay on CCRF-CEM leukemia, in the assay on UO-31 renal, with HCT-116 colon, in the assay with COLO 205 colon, with SF-268 CNS and in the assay on SN12C renal was greater than 100 µM in each case. Moreover, the TGI in the assay on SW-620 colon, in the assay with HOP-92 NSCLC, with NCI/ADR-RES ovarian, in the assay on UACC-257 melanoma, in the assay on MDA-N and in the assay on OVCAR-8 ovarian was greater than 100 µM each time.

Consider `CCn1cnnc1-c1nsc2ccccc12`, for which the TGI in the assay with CCRF-CEM leukemia, with UO-31 renal, in the assay on HCT-116 colon, with COLO 205 colon, with SNB-78 CNS and in the assay with DMS 273 small cell lung was greater than 100 µM throughout. The TGI in the assay with SF-268 CNS, in the assay on SN12C renal, in the assay on SW-620 colon, in the assay on HOP-18 NSCLC, in the assay on HOP-92 NSCLC and in the assay with UACC-257 melanoma was greater than 100 µM in each case. The compound also displayed a TGI in the assay on OVCAR-8 ovarian greater than 100 µM.

For the compound `O=[N+]([O-])c1ccc(NNN=Nc2ccc(-c3nc4ccccc4s3)cc2)c([N+](=O)[O-])c1`, the TGI in the assay on CCRF-CEM leukemia is greater than 100 µM; with UO-31 renal it was 51.3 µM; with HCT-116 colon it was 33.8 µM; in the assay on COLO 205 colon it was 31.5 µM; in the assay with SF-268 CNS, greater than 100 µM; in the assay on SN12C renal it was 50.8 µM. Moreover, the TGI was greater than 100 µM with SW-620 colon; 52.7 µM in the assay with HOP-92 NSCLC; 81.5 µM with NCI/ADR-RES ovarian; 36 µM in the assay on UACC-257 melanoma; 35.3 µM in the assay on MDA-N; 72.5 µM in the assay with OVCAR-8 ovarian.

For `CC(=O)Nc1cccc(N=NN(C)C)c1`, the TGI with CCRF-CEM leukemia was greater than 100 µM; in the assay with UO-31 renal, greater than 100 µM; in the assay with HCT-116 colon, greater than 100 µM; in the assay on DLD-1 colon, greater than 31.6 µM; in the assay with COLO 205 colon it was greater than 100 µM; in the assay with SNB-78 CNS, greater than 100 µM. Also, the TGI in the assay with DMS 273 small cell lung, with SF-268 CNS, in the assay on SN12C renal, in the assay on SW-620 colon, in the assay with HOP-18 NSCLC and with HOP-92 NSCLC was greater than 100 µM each time. The TGI with NCI/ADR-RES ovarian, in the assay with UACC-257 melanoma and in the assay with OVCAR-8 ovarian was greater than 100 µM throughout.

Consider `O=C(N/N=C/c1cc(Br)cc(Br)c1[O-])c1ccccc1O.O=C(N/N=C/c1cc(Br)cc(Br)c1[O-])c1ccccc1O.[Co+2]`, for which the TGI came to 10.6 µM in the assay with UO-31 renal; 17.7 µM in the assay with HCT-116 colon; 20.4 µM in the assay on COLO 205 colon; 13.9 µM in the assay on SF-268 CNS; 17.2 µM in the assay on SW-620 colon; 6.13 µM with HOP-92 NSCLC. Also, the TGI in the assay on UACC-257 melanoma came out at 17.6 µM; with OVCAR-8 ovarian, 12.5 µM.

In the case of `NS(=O)(=O)c1ccc(/C=C/c2ccc(O)cc2)cc1`, the GI50 was 4.5 µM with CCRF-CEM leukemia, 31.5 µM in the assay on SF-268 CNS and 4.81 µM in the assay on OVCAR-8 ovarian. Further, the TGI with CCRF-CEM leukemia is greater than 100 µM; in the assay on UO-31 renal, 36.2 µM; with HCT-116 colon, 85.6 µM; with COLO 205 colon, 35.3 µM; with SF-268 CNS it was greater than 100 µM; in the assay with SN12C renal, greater than 100 µM. For the same compound, the TGI was greater than 100 µM in the assay with SW-620 colon; 39.5 µM in the assay with HOP-92 NSCLC; greater than 100 µM in the assay on NCI/ADR-RES ovarian; greater than 100 µM in the assay with UACC-257 melanoma; greater than 100 µM in the assay on MDA-N; 31.9 µM in the assay with OVCAR-8 ovarian.

For the compound `CCC1NC(N=Nc2ccc([N+](=O)[O-])cc2)(P(=O)(OC(C)C)OC(C)C)OC1=O` (stereo unspecified), the TGI in the assay on CCRF-CEM leukemia, in the assay with UO-31 renal, in the assay with HCT-116 colon, in the assay with DLD-1 colon, with COLO 205 colon and in the assay with SNB-78 CNS was greater than 100 µM each time. Besides, the TGI in the assay with DMS 273 small cell lung, in the assay with SF-268 CNS, with SN12C renal, with SW-620 colon, with HOP-92 NSCLC and with UACC-257 melanoma was greater than 100 µM in each case. In the assay on OVCAR-8 ovarian, this compound came in with a TGI greater than 100 µM.

In the case of `O=c1oc2c(Cl)cc(Cl)cc2cc1C1=CSC2=NCCN12`, the TGI in the assay with CCRF-CEM leukemia, in the assay on UO-31 renal, in the assay on HCT-116 colon, with COLO 205 colon, with SN12C renal and in the assay with SW-620 colon was greater than 100 µM each time. Also, the TGI in the assay on HOP-92 NSCLC, with NCI/ADR-RES ovarian, in the assay with UACC-257 melanoma, in the assay on MDA-N and with OVCAR-8 ovarian was greater than 100 µM throughout.

For the compound `CCOC(=O)c1nnc2c(C#N)c(-c3ccccc3)c(C)n2c1N`, the TGI with CCRF-CEM leukemia, in the assay on UO-31 renal, in the assay on HCT-116 colon, with COLO 205 colon, in the assay on SF-268 CNS and in the assay on SN12C renal was greater than 100 µM each time. For the same compound, the TGI in the assay with SW-620 colon is greater than 100 µM; with NCI/ADR-RES ovarian, greater than 100 µM; in the assay on UACC-257 melanoma, 92.7 µM; in the assay with MDA-N it was greater than 100 µM; in the assay with OVCAR-8 ovarian, 98.3 µM.

For the compound `CC(C)NC(=O)OCc1c2c(n(C)c1COC(=O)NC(C)C)-c1ccccc1CC2`, the TGI in the assay with CCRF-CEM leukemia stood at 7.63 µM; in the assay on UO-31 renal, 32.4 µM; in the assay with HCT-116 colon, 23.2 µM; in the assay with DLD-1 colon it was 16.9 µM; in the assay on COLO 205 colon, 21.6 µM; in the assay with SNB-78 CNS it was 72 µM. For the same compound, the TGI with DMS 273 small cell lung was determined as 27.3 µM; in the assay with SF-268 CNS, 28.8 µM; in the assay on SN12C renal, 27.4 µM; in the assay on SW-620 colon it was 26 µM; in the assay with HOP-18 NSCLC, 13.9 µM; in the assay with HOP-92 NSCLC, 22.2 µM. For the same compound, the figures for the TGI in the assay with NCI/ADR-RES ovarian, in the assay on UACC-257 melanoma and in the assay with OVCAR-8 ovarian were 32.2 µM, 29.7 µM and 31.1 µM, respectively.

As to `c1ccc([I+]c2ccccc2)cc1`, the TGI in the assay with CCRF-CEM leukemia, in the assay with UO-31 renal, in the assay with HCT-116 colon, in the assay on COLO 205 colon, in the assay with SF-268 CNS and in the assay with SN12C renal was greater than 100 µM in each case. The TGI in the assay on SW-620 colon, with HOP-92 NSCLC, with NCI/ADR-RES ovarian, with UACC-257 melanoma, with MDA-N and with OVCAR-8 ovarian was greater than 100 µM throughout.

Take `CC1=CC2c3cccc4[nH]cc(c34)CC2N(C)C1` (stereo unspecified): the TGI was greater than 100 µM in the assay on CCRF-CEM leukemia; greater than 76.9 µM in the assay on UO-31 renal; greater than 100 µM with HCT-116 colon; greater than 88.2 µM in the assay on DLD-1 colon; greater than 100 µM in the assay with COLO 205 colon; greater than 100 µM in the assay with SNB-78 CNS. The TGI is greater than 100 µM in the assay with DMS 273 small cell lung; greater than 100 µM with SF-268 CNS; greater than 100 µM in the assay on SN12C renal; greater than 100 µM in the assay on SW-620 colon; 82.4 µM with HOP-18 NSCLC; greater than 80.7 µM in the assay on HOP-92 NSCLC. Further, the TGI in the assay on NCI/ADR-RES ovarian, in the assay on UACC-257 melanoma and in the assay with OVCAR-8 ovarian was greater than 100 µM throughout.

Take `CC(Cl)CC(=O)OCC1CCCN2CCCCC12` (stereo unspecified): the TGI in the assay with CCRF-CEM leukemia, in the assay with UO-31 renal, in the assay on HCT-116 colon, with COLO 205 colon, in the assay with SF-268 CNS and with SN12C renal was greater than 100 µM in each case. Moreover, the TGI with SW-620 colon, in the assay with HOP-92 NSCLC, with NCI/ADR-RES ovarian, with UACC-257 melanoma, with MDA-N and in the assay with OVCAR-8 ovarian was greater than 100 µM each time.

For `Cc1ccc2c(=O)c3ccccc3sc2c1`, the TGI with CCRF-CEM leukemia, with UO-31 renal, with HCT-116 colon, in the assay on DLD-1 colon, in the assay on COLO 205 colon and in the assay on DMS 273 small cell lung was greater than 100 µM each time. In addition, the TGI in the assay on SF-268 CNS, in the assay with SN12C renal, with SW-620 colon, in the assay on HOP-18 NSCLC and in the assay with OVCAR-8 ovarian was greater than 100 µM in each case.
